According to patent US20060014740A1 (priority 2003, published 2006):
Where a name gives a salt, the structure may show the parent alone. Read-outs that look alike come from different tables or passages of the source. One block for each compound: values may come before it.

Experiments:
[1] = test system: TSU-Pr1 human prostate cancer cells; experiment: SRB cytotoxicity assay, TSU-Pr1; assay type: cell-based; conditions: 96 h
In short: (§1)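 Cells seeded at 1000–5000 per well by growth rate, then exposed 96 h to compound (0 to 100 μM) in three to five replicates. Cells TCA-fixed, SRB-stained, absorbance read at 540 nm; cell number expressed as percentage of untreated control.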

[2] = test system: LNCaP cells; experiment: Apoptosis sandwich ELISA (DNA-histone complex), LNCaP; assay type: cell-based, human
Method: (§2) A sandwich ELISA (Roche, Mannheim, Germany) utilizing monoclonal antibodies specific for DNA and histones was used to quantify degree of apoptosis induced by the analogs after 72 h exposure. This assay measures DNA-histone complexes (mono- and oligonucleosomes) released into cytoplasm from the nucleus during apoptosis. RH7777 cells were employed because of nonspecific cytotoxicity of compound 4 in receptor-negative cells as well as receptor-positive prostate cancer cells.
(§3) From the LPL receptor mRNA expression studies (Table 2), it was evident that these cell lines serve as an excellent model system to explore the effects of LPL receptor. Given the structural similarity of SAPs to ceramide (and the known ability of ceramide to induce apoptosis), it was then determined whether the antiproliferative effects of thiazolidine analogs were mediated via apoptotla events. The ability of the analogs to induce apoptosis in LNCaP, PC-3, and RH7777 cells was examined using a quantitative sandwich ELISA that measures DNA-histone complex released during apoptosis. The enrichment factor calculated (as ratio of OD405 in treated and un-treated cells) provides a quantitative assessment of the degree of apoptosis induced. Initially, only two compounds (4 & 5) were used for this study. Apoptotic activity of analog (compound 4) was selective in prostate cancer cells despite nonselective cytotoxicity in RH7777 negative control cells (see Table 5 below). Analog compound 5 induced apoptosis in PC-3 and LNCaP cells, but to a lesser extent in PC-3 cells perhaps due to lower potency in this cell line.

[3] = test system: RH7777 rat hepatoma cells; experiment: SRB cytotoxicity assay, RH7777 control cell line; assay type: cell-based; conditions: read-out: IC50 RH7777
In short: as §1

[4] = test system: LNCaP human prostate cancer cells; experiment: SRB cytotoxicity assay, LNCaP; assay type: cell-based; conditions: 96 h; for IC50: read-out: IC50 LNCaP
In short: as §1

[5] = test system: human breast cancer cell line (MCF-7); experiment: SRB cytotoxicity assay, MCF-7; assay type: cell-based; conditions: Homo sapiens, MCF7, read-out: IC50 MCF-7
In short: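 Cells plated at 1000–5000 per well by growth rate and exposed to compound (0 to 100 μM) for 96 h, three to five replicates. Cell number read by sulforhodamine B: TCA fixation, 0.4% SRB staining, absorbance at 540 nm.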

[6] = test system: CaOv-3 human ovarian cancer cell line; experiment: SRB cytotoxicity assay, CaOv-3; assay type: cell-based; conditions: Homo sapiens, Caov-3; Table 8
Method: (§4) For in vitro cytotoxicity screening, 1000 to 5000 cells were plated into each well of 96-well plates depending on growth rate, and exposed to different concentrations of a test compound for 96 h in three to five replicates. All the compounds were dissolved in dimethyl sulfoxide at 5 to 20 mM, and diluted to desired concentrations in complete culture medium. Cell numbers at the end of the drug treatment were measured by the SRB assay (Gududuru et al., “Synthesis and Biological Evaluation of Novel Cytotoxic Phospholipids for Prostate Cancer,” Bioorg. Med. Chem. Lett. 14:4919-4923 (2004); Rubinstein et at., “Comparison of in vitro Anticancer-Drug-Screening Data Generated with a Tetrazolium Assay Versus a Protein Assay Against a Diverse Panel of Human Tumor Cell Lines,” J. Naatl, Cancer Inst. 82:1113-1118 (1990), each of which is hereby incorporated by reference in its entirety). Briefly, the cells were fixed with 10% of trichloroacetic acid, stained with 0.4% SRB, and the absorbances at 540 nm was measured using a plate reader (DYNEX Technologies, Chantilly, Va.).
(§5) In vitro cytotoxicity assay was performed by the same sulforhodamine B (SRB) assay (described above). The compounds shown in Table 8 below where tested for activity against the breast cancer and ovarian cancer cell lines.

[7] = test system: DU-145 human prostate cancer cells; experiment: SRB cytotoxicity assay, DU-145; assay type: cell-based; conditions: 96 h
In short: as §1

[8] = test system: PPC-1 human prostate cancer cells; experiment: SRB cytotoxicity assay, PPC-1; assay type: cell-based; conditions: 96 h, read-out: IC50 PPC-1
In short: as §1

[9] = test system: PC-3 cells; experiment: Apoptosis sandwich ELISA (DNA-histone complex), PC-3; assay type: cell-based, human
Method: as §2, §3

[10] = test system: PC-3 human prostate cancer cells; experiment: SRB cytotoxicity assay, PC-3; assay type: cell-based; conditions: 96 h, read-out: IC50 PC-3
In short: as §1

[11] = test system: LNCaP cells; experiment: DNA fragmentation by agarose gel electrophoresis; assay type: cell-based, human; conditions: treated 24 to […], FIGS. 4A-B
Method: In FIG. 4B, the dose and exposure time are indicated for compound 5 as follows: lane 1, 100 bp DNA marker; lane 2, […] for 24 h; lane 3, 5 μM for 48 h; lane 4, 5 μM for 72 h; lane 5, 5 μM for 96 h; lane 6, 3 μM for 96 h; lane 7, 8 μM for 48 h; and lane 8, 8 μM for 72 h;

[12] = test system: SKOv-3 human ovarian cancer cell line; experiment: SRB cytotoxicity assay, SKOv-3; assay type: cell-based; conditions: Homo sapiens, SK-OV-3; Table 8
Method: as §4, §5

[13] = test system: OVCAR-3 human ovarian cancer cell line; experiment: SRB cytotoxicity assay, OVCAR-3; assay type: cell-based; conditions: Homo sapiens, OVCAR-3; Table 8
Method: as §4, §5

[14] = test system: five human prostate cancer cell lines (DU-145, PC-3, LNCaP, PPC-1, TSU-Pr1); experiment: SRB cytotoxicity assay, statements over several cell lines; assay type: cell-based
Method: as §4
The antiproliferative activity of all the synthesized compounds was evaluated against five human prostate cancer cell lines and in RH7777 cells (negative control) using the sulforhodamine B (SRB) assay (see description in Example 5 above). […]

[15] = test system: CHO cells (CHO-1, CHO-K1); experiment: SRB cytotoxicity assay, CHO; assay type: cell-based; conditions: Table 9; negative control cell line; 96 h
Method: as §4, §5
(§6) Cells were exposed to a wide range of concentrations (0 to 100 μM) of the particular compound for 96 h in 96 well plates. Cells were fixed with 10% trichloroacetic acid, washed five times with water. The plates were air dried overnight and fixed cells were stained with SRB solution. The cellular protein-bound SRB was measured at 540 nm using a plate reader. Cell numbers at the end of the treatment were measured.
as §6, with “96-well” for “96 well”, “calculated as a percentage of untreated control.” for “measured.”

[16] = Homo sapiens, TSU-Pr1, Example 10 table, read-out: IC50 TSU-Pr1
[17] = Rattus norvegicus, RH7777, Example 10 table, 0 to 100 μM for 96 h
[18] = Homo sapiens, LNCaP, Example 10 table
[19] = Table 8, breast cancer cell line
[20] = Homo sapiens, DU-145, read-out: IC50 DU-145, Example 10 table
[21] = Homo sapiens, PPC-1, Example 10 table
[22] = Homo sapiens, TSU-Pr1, Table 4, read-out: IC50 TSU-Pr1
[23] = Rattus norvegicus, RH7777, Table 4, control cell line, 96 h
[24] = Homo sapiens, DU-145, read-out: IC50 DU-145, Table 4
[25] = Table 9, negative control cell line, 96 h

Compound: CCCCCCCCCCCCCCCCCCNC(=O)[C@@H]1CSC(c2ccccc2)N1.Cl (mixture of isomers) [Compound 5-HCI, (2RS, 4R)-2-Phenylthiazolidine-4-carboxylic acid octadecylamide Hydrochloride]
- IC50 [1, 16]: 5 µM
- Apoptosis enrichment factor (ratio of OD405 in treated and un-treated cells) ([2]; 2 μM for 72 h): 4.5
- Apoptosis enrichment factor (ratio of OD405 in treated and un-treated cells) ([2]; 5 μM for 72 h): 45.2
- Apoptosis enrichment factor (ratio of OD405 in treated and un-treated cells) ([2]; 10 μM for 72 h): 37.1
- Apoptosis enrichment factor (ratio of OD405 in treated and un-treated cells) ([2]; 20 μM for 72 h): 26.1
- IC50 [3, 17]: 25.6 µM
- IC50 [4, 18]: 2.1 µM
- IC50 ([5]; Example 10 table, 96 h): 4.2 µM
- IC50 [5, 19]: 4.2 µM
- IC50 [6]: 2.5 µM
- IC50 [7, 20]: 5.4 µM
- IC50 [8, 21]: 2 µM
- Apoptosis enrichment factor (ratio of OD405 in treated and un-treated cells) ([9]; 2 μM for 72 h): 1.4
- Apoptosis enrichment factor (ratio of OD405 in treated and un-treated cells) ([9]; 5 μM for 72 h): 2.3
- Apoptosis enrichment factor (ratio of OD405 in treated and un-treated cells) ([9]; 10 μM for 72 h): 3.4
- Apoptosis enrichment factor (ratio of OD405 in treated and un-treated cells) ([9]; 20 μM for 72 h): 12.7
- IC50 ([10]; Homo sapiens, Example 10 table): 7.8 µM
- DNA fragmentation (apoptosis) [11]: induce cell apoptosis
- IC50 [12]: 8.5 µM
- IC50 [13]: 4.5 µM

Compound: CCCCCCCCCCCCCCCCCCNC(=O)c1csc(-c2ccccc2)n1 [Compound 34, 2-phenylthiazole-4-carboxylic acid octadecylamide]
- IC50 [1, 22]: > 20 µM
- IC50 [3, 23]: > 20 µM
- IC50 ([4]; Homo sapiens, LNCaP, Table 4): > 20 µM
- IC50 [5, 19]: > 20 µM
- IC50 ([14]; both prostate and RH7777 cells, read-out: No activity below (concentration)): > 20 µM
- IC50 [7, 24]: > 20 µM
- IC50 ([8]; Homo sapiens, PPC-1, Table 4): > 20 µM
- IC50 ([10]; Homo sapiens, Table 4): > 20 µM

Compound: CCCCCCCCC=CCCCCCCCC(=O)NCCOP(=O)(O)O [compound 320]
- IC50 ([1]; Table 9, read-out: IC50 TSU): > 50 µM
- IC50 [3, 25]: > 50 µM
- IC50 LNCaP ([4]; Table 9): Not Active
- IC50 ([7]; read-out: IC50 DU-145, Table 9): > 50 µM
- IC50 [15]: > 50 µM
- IC50 ([10]; Table 9): > 50 µM

Compound: CCCCCCCNC(=O)[C@@H]1CSC(c2ccccc2)N1 (mixture of isomers) [Compound 3-HCI, (2RS, 4R)-2-Phenylthiazolidine-4-carboxylic acid heptylamide Hydrochloride]
- IC50 [1, 16]: 28 µM
- IC50 [3, 17]: 52.2 µM
- IC50 [4, 18]: 12.4 µM
- IC50 ([5]; Example 10 table, 96 h): 50.3 µM
- IC50 [5, 19]: 50.3 µM
- IC50 [6]: 19.2 µM
- IC50 [7, 20]: 44.9 µM
- IC50 [8, 21]: 34.7 µM
- IC50 ([10]; Homo sapiens, Example 10 table): 38.5 µM
- IC50 [12]: 47.8 µM
- IC50 [13]: 34 µM

Compound: CCCCCCCCCCCCCCCCCCNC(=O)[C@H]1CSC(c2ccccc2)N1 (stereo partly drawn) [5-HCI (S), (4S)-N-octadecyl-2-phenylthiazolidine-4-carboxamide]
- IC50 [1, 16]: ~10 µM
- IC50 [3, 17]: 19.1 µM
- IC50 [4, 18]: 6.3 µM
- IC50 ([5]; Example 10 table, 96 h): 7.4 µM
- IC50 [5, 19]: 7.4 µM
- IC50 [6]: 18 µM
- IC50 [7, 20]: 7.1 µM
- IC50 [8, 21]: 4 µM
- IC50 ([10]; Homo sapiens, Example 10 table): > 10 µM
- IC50 [12]: 18 µM
- IC50 [13]: 5.2 µM

Compound: CCCCCCCCC=CCCCCCCCCNC(=O)C(N)CO (centres unmarked) [compound 309]
- IC50 ([1]; Table 9, read-out: IC50 TSU): 5.5 µM
- IC50 [3, 25]: 6.8 µM
- IC50 ([4]; Table 9): 6.6 µM
- IC50 ([7]; read-out: IC50 DU-145, Table 9): 6.9 µM
- IC50 ([8]; Table 9): 5.1 µM
- IC50 [15]: 5.2 µM
- IC50 ([10]; Table 9): 5.9 µM

Compound: CCCCCCCCNC(=O)C(CO)NC(=O)CCCCCCC (centres unmarked) [315d]
- IC50 ([1]; Table 9, read-out: IC50 TSU): 93.8 µM
- IC50 ([4]; Table 9): > 100 µM
- IC50 ([7]; read-out: IC50 DU-145, Table 9): > 100 µM
- IC50 ([8]; Table 9): 81.2 µM
- IC50 [15]: > 100 µM
- IC50 ([10]; Table 9): 81.5 µM

Compound: CCCCCCCCC=CCCCCCCCC(=O)NCCO [compound 319]
- IC50 TSU ([1]; Table 9): Not
- IC50 [3, 25]: > 20 µM
- IC50 LNCaP ([4]; Table 9): Not Active
- Activity against DU-145, PC-3, and LNCaP prostate cancer cell lines [14]: did not show any activity
- IC50 ([8]; Table 9): > 20 µM
- IC50 [15]: > 20 µM

Compound: CCCCCCCCCCCCCCCCCCNC[C@@H](N)CO [compound 317]
- IC50 ([1]; Table 9, read-out: IC50 TSU): 2.2 µM
- IC50 [3, 25]: 2.9 µM
- IC50 ([4]; Table 9): 5.1 µM
- IC50 ([7]; read-out: IC50 DU-145, Table 9): 4.1 µM
- IC50 ([8]; Table 9): 1.9 µM
- IC50 [15]: 2.2 µM
- IC50 ([10]; Table 9): 2.6 µM

- melting point: 65 °C
Compound: CCCCCCCCCCCCCCCCCCNC(=O)[C@@H]1CSC(c2ccc(F)cc2)N1 (mixture of isomers) [Compound 19, (2RS, 4R)-2-(4-Fluoro-phenyl)-thiazolidine-4-carboxylic acid octadecylamide]
- IC50 [1, 22]: 5.4 µM
- IC50 [3, 23]: 17.4 µM
- IC50 ([4]; Homo sapiens, LNCaP, Table 4): 1.9 µM
- IC50 [5, 19]: 8.8 µM
- IC50 [6]: 5.5 µM
- IC50 [7, 24]: 5.7 µM
- IC50 ([8]; Homo sapiens, PPC-1, Table 4): 2.1 µM
- IC50 [12]: 4.2 µM
- IC50 [13]: 2.3 µM
